Molecular target: T1, Human T-type calcium channel (Cav 3.2) (Homo sapiens, UniProt O95180)
T1 construct: Edward Perez-Reyes, University of Virginia, USA; host or cells: HEK293
Assay: Calcium Influx Inhibition Assay
Format: cell-based
Conditions: Human T-type calcium channel (Cav 3.2) expressing HEK293 cells, FLIPR Calcium 4 fluorescence
Protocol: 1. Calcium Influx Inhibition Assay
Human T-type calcium channel (Cav 3.2) expressing HEK293 cells were obtained from Prof. Edward Perez-Reyes, University of Virginia, USA. The calcium-sensitive fluorescent dye used was FLIPR Calcium 4 Assay Kit (Molecular Devices). To a black 96-well plate with a clear bottom coated with type I collagen, the human T-type calcium channel (Cav 3.2) expressing HEK293 cells were seeded and cultured overnight, and the culture medium was removed. A solution of the calcium-sensitive fluorescent dye was added, and the plate was incubated at 37° C. in an atmosphere of 5% carbon dioxide for 30 minutes. To the plate, a diluted solution of a compound was added, and the whole was further incubated at 37° C. in an atmosphere of 5% carbon dioxide for 30 minutes. While fluorescence was continuously analyzed from the bottom with a FlexStation 3 (Molecular Devices), a calcium solution was added. […] From the rise in the fluorescence from the base line, the inhibition percentage was calculated. The logarithms of compound concentrations were plotted with respect to the inhibition activities to give an IC50 value.

T1 sequence (O95180 whole entry): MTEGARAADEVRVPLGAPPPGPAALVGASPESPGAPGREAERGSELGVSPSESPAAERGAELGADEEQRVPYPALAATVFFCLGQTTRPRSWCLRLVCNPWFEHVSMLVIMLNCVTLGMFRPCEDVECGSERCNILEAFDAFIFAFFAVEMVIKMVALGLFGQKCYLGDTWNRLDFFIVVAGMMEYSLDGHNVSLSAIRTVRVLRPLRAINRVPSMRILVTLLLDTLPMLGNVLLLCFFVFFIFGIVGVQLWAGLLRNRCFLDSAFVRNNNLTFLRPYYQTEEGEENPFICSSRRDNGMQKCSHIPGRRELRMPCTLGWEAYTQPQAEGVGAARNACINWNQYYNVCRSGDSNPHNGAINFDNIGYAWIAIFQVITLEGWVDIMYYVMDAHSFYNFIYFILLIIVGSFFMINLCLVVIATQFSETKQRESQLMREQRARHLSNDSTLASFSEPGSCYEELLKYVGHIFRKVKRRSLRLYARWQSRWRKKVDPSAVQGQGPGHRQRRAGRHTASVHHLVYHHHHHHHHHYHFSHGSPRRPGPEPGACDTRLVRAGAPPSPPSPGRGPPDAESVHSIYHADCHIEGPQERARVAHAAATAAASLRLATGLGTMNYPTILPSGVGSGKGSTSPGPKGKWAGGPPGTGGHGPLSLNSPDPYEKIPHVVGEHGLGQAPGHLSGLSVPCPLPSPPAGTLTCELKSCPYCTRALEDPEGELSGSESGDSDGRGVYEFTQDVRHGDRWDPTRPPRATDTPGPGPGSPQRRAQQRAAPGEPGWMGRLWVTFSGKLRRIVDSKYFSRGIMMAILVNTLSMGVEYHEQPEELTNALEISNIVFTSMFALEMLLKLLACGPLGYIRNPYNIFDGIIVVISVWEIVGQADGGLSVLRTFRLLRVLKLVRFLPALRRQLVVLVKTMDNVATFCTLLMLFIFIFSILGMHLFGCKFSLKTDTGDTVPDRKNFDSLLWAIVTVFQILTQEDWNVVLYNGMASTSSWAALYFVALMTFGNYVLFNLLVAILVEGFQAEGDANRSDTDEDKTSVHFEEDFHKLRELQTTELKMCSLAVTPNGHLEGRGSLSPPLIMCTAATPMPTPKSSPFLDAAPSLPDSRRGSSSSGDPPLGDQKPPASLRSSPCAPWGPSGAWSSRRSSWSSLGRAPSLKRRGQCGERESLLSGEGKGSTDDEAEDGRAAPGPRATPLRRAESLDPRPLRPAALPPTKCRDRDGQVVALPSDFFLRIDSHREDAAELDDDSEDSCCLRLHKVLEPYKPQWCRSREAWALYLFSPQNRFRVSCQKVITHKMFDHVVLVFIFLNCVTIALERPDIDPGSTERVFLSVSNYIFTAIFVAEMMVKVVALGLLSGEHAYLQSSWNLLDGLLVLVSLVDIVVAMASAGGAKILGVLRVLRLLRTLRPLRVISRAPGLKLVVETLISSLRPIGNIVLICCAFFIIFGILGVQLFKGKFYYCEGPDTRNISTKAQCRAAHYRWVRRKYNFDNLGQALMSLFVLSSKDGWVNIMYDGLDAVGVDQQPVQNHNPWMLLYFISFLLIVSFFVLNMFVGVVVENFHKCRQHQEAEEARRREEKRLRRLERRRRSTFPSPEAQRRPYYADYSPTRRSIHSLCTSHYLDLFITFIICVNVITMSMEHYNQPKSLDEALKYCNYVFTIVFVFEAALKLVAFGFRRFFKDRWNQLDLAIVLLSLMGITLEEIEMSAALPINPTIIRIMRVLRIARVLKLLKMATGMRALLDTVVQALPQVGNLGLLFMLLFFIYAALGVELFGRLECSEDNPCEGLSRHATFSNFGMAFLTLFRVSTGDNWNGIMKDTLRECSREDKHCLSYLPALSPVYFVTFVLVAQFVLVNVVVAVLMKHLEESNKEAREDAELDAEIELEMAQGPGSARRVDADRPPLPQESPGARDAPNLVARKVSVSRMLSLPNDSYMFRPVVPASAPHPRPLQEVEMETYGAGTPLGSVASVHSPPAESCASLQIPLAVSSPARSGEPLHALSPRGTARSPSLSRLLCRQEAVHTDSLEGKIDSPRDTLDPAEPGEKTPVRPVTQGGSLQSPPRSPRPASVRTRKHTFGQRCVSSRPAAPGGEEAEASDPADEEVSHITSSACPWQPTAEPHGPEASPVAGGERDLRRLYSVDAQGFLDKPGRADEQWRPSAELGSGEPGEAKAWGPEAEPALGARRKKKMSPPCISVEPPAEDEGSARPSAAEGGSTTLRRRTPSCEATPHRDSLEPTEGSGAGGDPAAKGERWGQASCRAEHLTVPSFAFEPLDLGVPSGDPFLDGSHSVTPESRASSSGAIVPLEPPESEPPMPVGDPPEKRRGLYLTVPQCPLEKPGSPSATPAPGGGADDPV

Compound | IC50 [nM]
Cc1nc(N2CC=C(c3ccc(F)cc3)C3(COCOC3)C2)nc(=O)n1Cc1ccc(C(F)(F)F)s1 [compound 486] | 410
N#Cc1cc(C2=CCN(c3ncn(Cc4ccc(C(F)(F)F)s4)c(=O)n3)CC2)ccc1F [compound 278] | 45
Cc1cc(N2CCN(c3nc(C)n(Cc4ccc(C(F)(F)F)s4)c(=O)n3)CC2)cs1 [compound 357] | 13
CC1CC(F)(c2ccc(F)cc2)CCN1c1ncn(Cc2ccc(Cl)cc2)c(=O)n1 (centres unmarked) [compound 134] | 320
O=c1nc(N2CC=C(c3ccc(F)cc3)[C@@H](O)C2)ncn1Cc1ccc(OS(=O)(=O)C(F)(F)F)nc1 [compound 208] | 6.2
O=c1nc(N2CCN(c3ccc(Cl)cc3F)CC2)ncn1Cn1ccc(C(F)(F)F)n1 [compound 60] | 420
Cc1nc(N2CC=C(c3ccc(F)cc3)[C@@H](O)C2)nc(=O)n1Cc1ccc(Cl)s1 [compound 403] | 2
O=c1nc(N2CC=C(c3cncs3)CC2)ncn1Cc1ccc(C(F)(F)F)s1 [compound 265] | 570
O=c1nc(N2CCN(c3ccc(F)cc3)CC2)ncn1Cc1ccc(C(F)(F)F)o1 [compound 21] | 61
O=c1nc(NC2CCC3(c4ccc(F)cc4)CC23)ncn1Cc1ccc(Cl)cc1 (centres unmarked) [compound 127] | 30
O=c1nc(N2CC=C(c3ccc(F)c(O)c3)CC2)ncn1Cc1ccc(C(F)(F)F)s1 [compound 304] | 64
O=c1nc(N2CC=C(c3ccc(F)cc3)C(O)C2)ncn1Cc1ccc(C(F)(F)F)s1 (centres unmarked) [compound 190] | 3.3
Cc1cc(N2CCN(c3ncn(Cc4ccc(C(F)(F)F)o4)c(=O)n3)CC2)cs1 [compound 436] | 330
CCOC(=O)c1cc(C(C)(C)C)n(Cn2cnc(N3CCN(c4ccc(F)cc4)CC3)nc2=O)n1 [compound 34] | 520
N#Cc1ccc(N2CCN(c3ncn(Cn4ccc(C(F)(F)F)n4)c(=O)n3)CC2)cc1 [compound 49] | 860
COc1nc(C2=CCN(c3ncn(Cc4ccc(C(C)(C)C)s4)c(=O)n3)C[C@@H]2O)ccc1Cl [compound 413] | 6.9
COc1ccc(C2=CCN(c3ncn(Cc4ccc(C(F)(F)F)s4)c(=O)n3)CC2)s1 [compound 300] | 160
O=c1nc(N2CC=C(c3ccc(F)cc3)C(O)C2)ncn1Cn1ccc(C(F)(F)F)n1 (centres unmarked) [compound 188] | 42
O=c1nc(N2CCN(c3ccc(F)cc3)CC2)ncn1Cc1cccc(C(F)(F)F)c1 [compound 8] | 140
O=c1nc(N2CC=C(c3ccc(F)cc3)[C@@H](O)C2)ncn1Cc1ccc(OS(=O)(=O)C(F)(F)F)cc1 [compound 211] | 2
C[C@@H]1CN(c2ccc(F)cc2)CCN1c1ncn(Cc2ccc(Cl)cc2)c(=O)n1 [compound 96] | 110
CC(=O)OC1CN(c2ncn(Cc3ccc(C(F)(F)F)s3)c(=O)n2)CC=C1c1ccc(F)cc1 (centres unmarked) [compound 476] | 61
O=c1nc(N2CCN(c3ccc(F)cc3)CC2)nc(CO)n1Cc1ccc(C(F)(F)F)s1 [458b] | 53

Compound | IC50 [nM]
CCCc1nc(N2CC=C(c3ccc(F)cc3)CC2)nc(=O)n1Cc1ccc(C(F)(F)F)s1 [compound 460] | 61
O=c1nc(N2CC=C(c3cc4ccccc4o3)CC2)ncn1Cc1ccc(C(F)(F)F)s1 [compound 260] | 140
Cc1nc(N2CC=C(c3ccc(F)cc3)[C@@H](O)C2)nc(=O)n1Cc1ccc(OS(=O)(=O)C(F)(F)F)cc1 [compound 213] | 3.4
O=c1nc(N2CCC(c3ccc(F)cc3)CC2)ncn1Cc1ccc(Cl)cc1 [compound 114] | 130
O=c1nc(NCC2CC2c2ccc(F)cc2)ncn1Cc1ccc(C(F)(F)F)s1 (single isomer, unassigned) [compound 310] | 170
O=c1nc(N2CC3C(C2)C3c2ccc(F)cc2)ncn1Cc1ccc(C(F)(F)F)s1 (centres unmarked) [compound 311] | 160
Cc1nc(N2CCN(c3ccccc3)CC(F)(F)C2)nc(=O)n1Cc1ccc(C(F)(F)F)s1 [compound 377] | 410
O=c1nc(N2CC=C(c3ccc(F)cc3)C(F)C2)ncn1Cc1ccc(Cl)cc1 (centres unmarked) [compound 107] | 76
Cc1nc(N2CC3CCC(C2)N3c2ccc(F)cc2)nc(=O)n1Cc1ccc(C(F)(F)F)s1 [compound 380] | 310
O=c1nc(N2CC=C(c3ccc(F)cc3)CC2)ncn1Cc1ccc2c(c1)OCO2 [compound 182] | 100
CC(F)(F)c1ccc(Cn2cnc(N3CC=C(c4ccc(F)cc4)[C@@H](O)C3)nc2=O)s1 [compound 207] | 7.5
O=c1nc(N[C@H]2C[C@@H](c3ccc(F)cc3)C2)ncn1Cc1ccc(C(F)(F)F)s1 [compound 318] | 33
O=c1nc(N2CCN(c3ccc(F)cc3)CC2)ncn1Cc1ccc(OCC(F)(F)F)nc1 [compound 144] | 96
Cc1ccc(C2=CCN(c3nc(C)n(Cc4ccc(Br)s4)c(=O)n3)C[C@@H]2O)cc1F [compound 392] | 1.3
O=c1nc(N2CC=C(c3ccc(F)cc3)CC2)ncn1Cc1ccc2c(c1)CCCO2 [compound 178] | 60
Cc1nc(N2CC=C(c3ccc(F)cc3)[C@@H](O)C2)nc(=O)n1Cc1ccc(C(F)(F)F)o1 [compound 439] | 6.9
Cc1cc(Cn2cnc(N3CCN(c4ccc(F)cc4)CC3)nc2=O)sc1Br [compound 153] | 51
CC(=O)NC1CN(c2ncn(Cc3ccc(C(F)(F)F)s3)c(=O)n2)CC=C1c1ccc(F)cc1 (centres unmarked) [compound 317] | 56
O=c1nc(N2CC=C(c3ccc(F)cc3)C(O)C2)ncn1Cc1ccc(OS(=O)(=O)C(F)(F)F)nc1 (centres unmarked) [compound 189] | 12
O=c1nc(Nc2nc(-c3ccc(F)c(F)c3)cs2)ncn1Cc1ccc(Cl)cc1 [compound 130] | 77
Cc1ccc(C2=CCN(c3nc(C)n(Cc4ccc(OS(=O)(=O)C(F)(F)F)nc4)c(=O)n3)C[C@@H]2O)cc1F [compound 448] | 16
COc1nc(C2=CCN(c3nc(C)n(Cc4ccc(OS(=O)(=O)C(F)(F)F)nc4)c(=O)n3)C[C@@H]2O)ccc1Cl [compound 450] | 46
O=c1nc(N2CC=C(c3ccc(F)cc3)C(O)C2)ncn1Cc1cc2c(s1)CCCC2 (centres unmarked) [compound 201] | 5.7

Compound | IC50 [nM]
O=c1nc(N2CCN(c3ccc(F)cc3)CC2)ncn1Cc1cc2cc(Cl)ccc2o1 [compound 18] | 50
O=c1nc(N2CC=C(c3ccc4ocnc4c3)CC2)ncn1Cc1ccc(C(F)(F)F)s1 [compound 295] | 180
O=c1nc(N2CC=C(c3ccc(F)cc3)CC2)ncn1Cc1ccc(OCC(F)(F)F)nn1 [compound 162] | 600
CCCCOc1nc(N2CCN(c3ccc(F)cc3)CC2)nc(=O)n1Cc1ccc(Cl)cc1 [compound 65] | 610
O=c1nc(N[C@@H]2CCO[C@H](c3ccc(F)cc3)C2)ncn1Cc1ccc(C(F)(F)F)s1 (racemic) [compound 307] | 270
CCCCCCOc1ccc(Cn2cnc(N3CCN(c4ccc(F)cc4)CC3)nc2=O)cc1 [compound 140] | 55
O=c1nc(N2CC=C(c3ccc(F)cc3)C(O)C2)ncn1Cc1ccc(Cl)cc1 (centres unmarked) [compound 90] | 19
O=c1nc(N2C=CC(c3ccc(F)cc3)=CC2)ncn1Cc1ccc(C(F)(F)F)s1 [compound 484] | 240
O=c1nc(N2CCN(c3ccc(F)cc3)CC2)ncn1Cc1ccc(C(F)(F)F)s1 [compound 25] | 25
COc1nc(C2=CCN(c3ncn(Cc4ccc(C(F)(F)F)s4)c(=O)n3)C[C@@H]2O)ccc1Cl [compound 329] | 4.8
Cc1ccc(C2=CCN(c3nc(C)n(Cc4ccc(C(F)(F)F)s4)c(=O)n3)C[C@@H]2O)cc1F [compound 349] | 1.1
O=c1nc(NC[C@H]2CCCN2c2ccc(F)cc2)ncn1Cc1ccc(Cl)cc1 [compound 129] | 60
Cc1cccc(N2CCN(c3ncn(Cn4ccc(C(F)(F)F)n4)c(=O)n3)CC2)c1 [compound 39] | 210
CC(c1ccc(C(F)(F)F)s1)n1cnc(N2CC=C(c3ccc(F)cc3)C(O)C2)nc1=O (centres unmarked) [compound 202] | 47
Cc1ccc(N2CCN(c3nc(C)n(Cc4ccc(C(F)(F)F)s4)c(=O)n3)CC2)cc1 [compound 363] | 8.7
Cc1nc(Nc2nc(-c3ccc(F)c(F)c3)cs2)nc(=O)n1Cc1ccc(C(F)(F)F)s1 [compound 383] | 89
O=c1nc(N[C@@H]2CCCN(c3ccc(F)cc3)C2)ncn1Cc1ccc(Cl)cc1 [compound 82] | 120
Cc1nc(N2CC=C(c3ccc(F)cc3)[C@@H](O)C2)nc(=O)n1Cc1ccc(C(F)(F)F)s1 [compound 342] | 0.94
Cc1nc(N2CC=C(c3ccc(F)cc3)C(CO)C2)nc(=O)n1Cc1ccc(C(F)(F)F)s1 (centres unmarked) [compound 379] | 54
Cc1nc(N2CC=C(c3ccc(F)cc3)[C@@H](N)C2)nc(=O)n1Cc1ccc(C(F)(F)F)s1 [compound 348] | 4.5
O=c1nc(N2CC=C(c3ccc(F)c(Cl)c3)[C@@H](O)C2)ncn1Cc1ccc(C(F)(F)F)s1 [compound 326] | 1.9
CC(C)(C)c1cc(Cn2cnc(N3CCN(c4ccc(F)cc4)CC3)nc2=O)[nH]n1 [compound 15] | 280

Reference: US9403798B2, “Triazinone compound and T-type calcium channel inhibitor” (NISSAN CHEMICAL INDUSTRIES, LTD., priority 2012, dated 2016)
